# Source: patent US10869931B2, “Polyethylene glycol-modified angiogenesis inhibitor HM-1 and application thereof” (NANJING ANJI BIOLOGICAL TECHNOLOGY CO.,LTD, priority 2016, dated 2020)
# Marks after values point to notes of the source that are not given here. Where no end group is shown, it is not given here.
# How the values were obtained:
# [1] = tested on: Breast cancer tumor cells; test: MTT proliferation inhibition, breast cancer cells; type: cell-based, human; design: concentration or dose not given beside the values; settings: 48 h
# Outline: (§1)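 Tumour cells plated at 2×10^4 cells/mL, attached overnight, then exposed to dilutions of mPEG-HM-1 for 48 h at 37 °C, 5% CO2. MTT added 4 h, formazan dissolved in DMSO, absorbance 570/630 nm; growth inhibition = 1 − treated/untreated, three independent repeats, mean±SD.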
# Brain tumor cells = test: MTT proliferation inhibition, brain tumor cells; type: cell-based, human; design: concentration or dose not given beside the values; settings: 48 h
# Outline: as §1
# [2] = tested on: Ovarian cancer tumor cells; test: MTT proliferation inhibition, ovarian cancer cells; type: cell-based, human; design: concentration or dose not given beside the values; settings: 48 h
# Outline: as §1
# [3] = tested on: Kidney cancer tumor cells; test: MTT proliferation inhibition, kidney cancer cells; type: cell-based, human; design: concentration or dose not given beside the values; settings: 48 h
# Outline: as §1
# [4] = tested on: xylene-induced ear swelling in Kunming mice; test: Xylene-induced ear swelling in mice; type: in vivo, mouse; settings: for Inhibition rate: ear swelling vs control
# Outline: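 Kunming mice were dosed once daily for 5 days (aspirin 200 mg/kg as positive control, saline as blank). One hour after the last dose, xylene was applied to the right ear, with the left ear as untreated reference. Ear punches were weighed 2 h later; swelling degree = right − left weight, rate = degree/left weight ×100%.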
# mouse spleen lymphocytes = test: ConA-stimulated mouse spleen lymphocyte proliferation (MTT); type: cell-based; settings: ConA 5 μg/mL, 48 h
# Outline: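 Spleen cells, red cells lysed with Tris-NH4Cl, plated at 5×10^6/mL in RPMI 1640 with 10% calf serum alongside blank, ConA and Dex (0.02 mg/mL) groups. After 48 h at 37° C., MTT added for 4 h, formazan dissolved in DMSO, OD read at 570 nm, 5 replicates.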
# [5] = tested on: Prostate cancer tumor cells; test: MTT proliferation inhibition, prostate cancer cells; type: cell-based, human; design: concentration or dose not given beside the values; settings: 48 h
# Outline: as §1
# [6] = tested on: choroidal neovascularization in BN rats; test: Laser-induced choroidal neovascularization in BN rats (FFA); type: in vivo, rat; settings: 25 μg intravitreally once daily for 1 week (Table 53)
# Outline: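 Male BN rats (6–8 weeks) received 8 laser photocoagulation spots per eye around the optic disc (647.1 nm, 350 mW, 50 μm, 0.05 s). Confirmed models, 5 per group, were given saline or PEG-modified HM-1 intravitreally once daily for 1 week. FFA was done 3, 7, 14 and 28 days after dosing.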
# [7] = tested on: Head and neck cancer tumor cells; test: MTT proliferation inhibition, head and neck cancer cells; type: cell-based, human; design: concentration or dose not given beside the values; settings: 48 h
# Outline: as §1
substance,measurement,setting,value
mPEG-ALD5k-Arg-Gly-Ala-Asp-Arg-Ala-Gly-Gly-Gly-Gly-Arg-Gly-Asp ({mPEG‑ALD 5 kDa}-RGADRAGGGGRGD) [mPEG-ALD5k-HM-1],rate of growth inhibition,[1],49.22 ± 11.87%
same,rate of growth inhibition,Brain tumor cells,42.15 ± 12.89%
same,rate of growth inhibition,[2],65.81 ± 20.42%
same,rate of growth inhibition,[3],55.43 ± 14.04%
same,Inhibition rate,[4]; 5 mg/kg once daily for 5 days,10.17%
same,Swelling,"[4]; 5 mg/kg once daily for 5 days, right minus left ear piece weight 2 h after xylene",5.50 ± 0.21 mg
same,Swelling,"[4]; 10 mg/kg once daily for 5 days, 2 h after xylene",4.80 ± 0.35* mg
same,Inhibition rate,[4]; 10 mg/kg once daily for 5 days,21.52%
same,Swelling,"[4]; 20 mg/kg once daily for 5 days, 2 h after xylene",4.16 ± 0.14** mg
same,Inhibition rate,[4]; 20 mg/kg once daily for 5 days,32.10%
same,A570 nm/A630 nm,mouse spleen lymphocytes; 5 μg/mL,0.6241 ± 0.0917
same,Inhibition Rate of spleen lymphocyte proliferation,mouse spleen lymphocytes; 5 μg/mL,9.14%
same,A570 nm/A630 nm,mouse spleen lymphocytes; 10 μg/mL,0.5448 ± 0.1072
same,Inhibition Rate of spleen lymphocyte proliferation,mouse spleen lymphocytes; 10 μg/mL,20.68%
same,A570 nm/A630 nm,mouse spleen lymphocytes; 20 μg/mL,0.4779 ± 0.1178
same,Inhibition Rate of spleen lymphocyte proliferation,mouse spleen lymphocytes; 20 μg/mL,30.42%
same,rate of growth inhibition,[5],38.47 ± 11.52%
same,CNV Incidence rate,[6]; Day 3 after administration,55.17%
same,leakage Spots #,"[6]; Day 3 after administration, total spots 290-296 by table",160
same,CNV Incidence rate,[6]; Day 7,52.75%
same,leakage Spots #,"[6]; Day 7, total spots 182-188 by table",96
same,CNV Incidence rate,[6]; Day 14,46.97%
same,leakage Spots #,"[6]; Day 14, total spots 132-138 by table",62
same,CNV Incidence rate,[6]; Day 28,46.48%
same,leakage Spots #,"[6]; Day 28, total spots 67-71 by table",33
same,rate of growth inhibition,[7],40.71 ± 11.33%
